Values quoted from earlier work as cited in patent publication US20160114057A1, “MODULAR PROTEIN DRUG CONJUGATE THERAPEUTIC” (ZYMEWORKS INC., priority 2013, published 2016).
Where two headings read alike, the source gives them in different places. Where a SMILES comes first, the peptide text is derived from it. [ ]: non-standard residue; d: D form. Aoe = N[C@@H](CCCCCC(=O)[C@@H]1CO1)C(=O)O; Aib = CC(C)(N)C(=O)O

Key:
histone deacetylase = conditions: inhibits histone deacetylase
[1] = system: A-549 (epidermoid carcinoma)
[2] = not given; remark: listed apart in the source
[3] = human
[4] = system: NCI tumor panel (60 cell line); conditions: NCI tumor panel; range over cell lines
[5] = not given; remark: listed apart in the source
various tumor cell lines = conditions: P388, K562, A431, MKN28; read-out: IC50 (for all)
tumors in animal models = conditions: tumor types as in Table 1
HT-29 (colon) = conditions: cell culture
KB = conditions: KB
[6] = i.p. in mice
MEL-28 = conditions: cell culture
[7] = system: CD33+ cells (HL-60, NOMO-1, and NKM-1); conditions: at 100 ng/mL

Molecule: CCC1/C=C/C=C/CC(C)C(O)C(C)(O)C(=O)CC(O)C(C)C(O)C(C)C(O)C(C)/C=C/C(=O)OC2C(C)C(CC1)OC1(CCC(C)C(CC(C)O)O1)C2C (centres unmarked) [BE-56384]
- IC50 (MKM-45): 0.12 MKM-45 ng/mL
- IC50 (P388): 0.1 P388 ng/mL
- IC50 (PC-13): 0.12 PC-13 ng/mL
- IC50 (colon 26): 0.29 colon 26 ng/mL
- IC50 (DLD-1): 34 DLD-1 ng/mL

Molecule: CC1(C)NC(=O)[C@H](CCCCCC(=O)[C@@H]2CO2)NC(=O)[C@H]2CCCN2C(=O)[C@H](Cc2ccccc2)NC1=O [Chlamydocin] (cyclo([Aib]F[dP][Aoe]))
- IC50 (histone deacetylase): 1.3 nM

Molecule: C/C1=C\C(C)C(C)OC(=O)CC(c2ccc(O)cc2)NC(=O)C(Cc2c(Cl)[nH]c3ccccc23)N(C)C(=O)C(C)NC(=O)C(C)C1 (centres unmarked) [Chondramide D]
- IC50 (A549 (lung); A549 (lung), read-out: Activity (IC50)): 14 nM
- IC50 [1]: 5 nM
- IC50 (U-937 (lymphoma)): 3 nM
- IC50 (A-498 (kidney)): 15 nM
- IC50 (SK-OV-3 (ovary)): 5 nM

Molecule: C/C=C1\NC(=O)[C@H]2CSSCC/C=C/[C@H](CC(=O)N[C@H](C(C)C)C(=O)N2)OC(=O)[C@H](C(C)C)NC1=O [FR-901228]
- toxic dose (LD50) (ip): 6.4 mg/kg
- toxic dose (LD50) (iv): 10 mg/kg
- Toxicity (in words) [2]: toxicity, lymphoid
- dose limiting toxicity [3]: (human) 18 mg/Kg;
- IC50 [4]: 0.56 to 4.1 nM
- t1/2 ([5]; human): t1/2 of 8 hrs

Molecule: COc1c(O)c2c(c3cc(C(=O)N4CCc5c4c(O)c(OC)c4[nH]c(C(=O)N6CC7CC78C6=CC(=O)c6[nH]cc(C)c68)cc54)[nH]c13)CCN2C(C)=O (centres unmarked) [Gilvusmycin]
- IC50 (various tumor cell lines): < 1 nM
- IC50 (P388): 0.08 P388 ng/mL
- IC50 (K562 (CML)): 0.86 K562 (CML) ng/mL
- IC50 (MKN28 (GI)): 0.75 MKN28 (GI); ng/mL
- IC50 (A431 (EC)): 0.72 A431 (EC) ng/mL

Molecule: C=C1C[C@@H]2CCO[C@H]3[C@@H]4C[C@H]5CC[C@H](CC(=O)C[C@@H]6[C@@H](OC)[C@@H](C[C@H](O)CO)O[C@H]6C[C@H]6O[C@@H](CC[C@@H]1O2)C[C@@H](C)C6=C)O[C@@H]5[C@@H]1OCC[C@@H]3O[C@H]41 [Halichondrin B analogs]
- activity in animal models (in words) (tumors in animal models): active (tumor

Molecule: CC[C@@H]1/C=C/C=C/C[C@H](C)[C@@H](O)[C@](C)(O)C(=O)[C@H](C)[C@@H](O)[C@H](C)C(=O)[C@H](C)[C@@H](O)[C@H](C)/C=C/C(=O)O[C@H]2[C@@H](C)[C@@H](CC1)O[C@@]1(CC[C@@H](C)[C@@H](C[C@H](C)O)O1)[C@@H]2CC [NK-1301129]
- Activity (IC50) (lung): 8.5 ng/mL lung
- Activity (IC50) (colon): 25 ng/mL colon

Molecule: NC[C@H]1[C@H]2CN3C(=O)c4cccn4[C@H]4NC(N)=NC43[C@H]2[C@@]2(N=C(N)N[C@@H]2O)[C@H]1Cl (some centres unmarked) [Palauamine]
- IC50 (P388; cell culture): 0.1 P388 micrograms/mL
- IC50 (A549 (lung); cell culture, A549): 0.2 A549 (lung) micrograms/mL
- IC50 (HT-29 (colon)): 2 HT-29 (colon) micrograms/mL
- IC50 (KB; cell culture): 10 KB micrograms/mL
- LD50 [6]: is 13 mg/Kg

Molecule: CCSC1SCC2C(=O)N(C)C3(CC3C)C(=O)OCC(NC(=O)c3nc4ccccc4cc3O)C(=O)NC(C)C(=O)N(C)C1C(=O)N(C)C1(CC1C)C(=O)OCC(NC(=O)c1nc3ccccc3cc1O)C(=O)NC(C)C(=O)N2C (centres unmarked) [SW-163E]
- Toxicity (in words) [2]: low toxicity (mice
- IC50 (HL-60): 1.3 nM
- IC50 (P388; read-out: Activity (IC50)): 0.3 nM
- IC50 (KB; read-out: Activity (IC50)): 0.4 nM
- IC50 (colon): 1.6 nM
- IC50 (A2780): 0.2 nM

Molecule: C=CC(C)(C)OC[C@H]1NC(=O)[C@H]([C@@H](C)OC(C)(C)C=C)NC(=O)C2CSC(N2)[C@@H](Cc2ccccc2)NC(=O)[C@@H]2CCCN2C(=O)C(C)NC(=O)[C@H]([C@@H](C)CC)NC1=O (some centres unmarked) [Trunkamide A]
- IC50 (P388; cell culture): 0.5 P388; micrograms/mL
- IC50 (A549 (lung); cell culture, A549): 0.5 A549; micrograms/mL
- IC50 (HT-29 (colon)): 0.5 HT-29; micrograms/mL
- IC50 (MEL-28): 1.0 MEL-28 micrograms/mL

Molecule: C=CCNC1=C2C[C@@H](C)C[C@H](OC)[C@H](O)[C@@H](C)/C=C(\C)[C@H](OC(N)=O)[C@@H](OC)/C=C\C=C(/C)C(=O)NC(=CC1=O)C2=O [Variant 17-AAG]
- activity in animal models (in words) (tumors in animal models): models active
- t1/2 ([5]; i.v.): ~1.5 h

Molecule: gemtuzumab ozogamicin
- Toxicity (in words) [2]: mild toxicity
- killing of CD33+ cells (in words) [7]: Kills CD33+ cells
